“Also recorded” adds a separate entry of the source.
Experiments:
SSTR2 [1] = test: Differential expression of SSTR2 (qRT-PCR) in iPSC generated pituitary organoids; type: cell-based, human; conditions: for effect on mifepristone-induced SSTR2 expression / effect on relacorilant-induced SSTR2 expression: iPSC organoids; for effect on mifepristone-induced SSTR2 expression: pretreatment 2 h before mifepristone (500 nM); for effect on relacorilant-induced SSTR2 expression: pretreatment 2 h before relacorilant (500 nM); for differential expression of SSTR2: iPSCctrl organoids, compound alone, 48 h, FIG. 5C, D
Procedure: (§1) Sonic Hedgehog (SHH) was withdrawn from the organoid growth media 16 hours prior to treatment. The experimental treatment groups included: vehicle (Veh), mifepristone (500 nM, Selleckchem S2606), GANT61 (5 μM, Stemcell Technologies 73692), ketoconazole (Keto, 10 μM, Selleckchem S1353), pasireotide (Pas, 100 nM, Target Mol TP2207-SB001), octreotide (Oct, 100 nM, Selleckchem P1017), mifepristone plus GANT61, mifepristone plus Keto, mifepristone plus Pas, relacorilant (500 nM, Corcept Therapeutics CORT125134), relacorilant plus Pas, relacorilant plus Oct, or dexamethasone (Dexa, 100 nM, SIGMA S4902). In the combination treatments, cultures were pretreated with the GANT61, Keto, Pas or Oct for 2 hours prior to treatment with mifepristone or Rela. PitNET tissue derived organoids hPITO36, hPITO37, hPITO38, hPITO39, and hPITO40 were treated with the following experimental conditions: Vehicle (1), pasireotide (2), relacorilant (3), relacorilant & pasireotide (4), mifepristone (5), mifepristone & pasireotide (6). The IC50 values used for each hPITO line for each drug were determined based on dose responses (FIG. 12). All organoid cultures were treated for 48 hours prior to analysis.
(§2) RNA was extracted from PitNET tissue or iPSC generated organoids using TRI Reagent® (Molecular Research Center Inc TR118) and the High Capacity cDNA Reverse Transcription Kit (Applied Biosystems, Foster City, CA) was used for cDNA synthesis of RNA following the recommended protocol. For each sample, 60 ng RNA was reverse transcribed to yield approximately […] total cDNA that was then used for the qRT-PCR. Pre-designed real-time polymerase chain reaction assays were purchased for the following genes: TPit (Thermo Fisher Scientific 4331182 Hs00193027), SF1 (Thermo Fisher Scientific 4331182 Hs00610436), SSTR2 (Thermo Fisher Scientific 4331182 Hs00265624_s1), SSTR5 (Thermo Fisher Scientific 4331182 Hs00990407_s1), POMC (Thermo Fisher Scientific 4331182 Hs01596743_ml), hPRT (Thermo Fisher Scientific 4331182 Hs02800695_ml), and FKBP5 (Thermo Fisher Scientific 4331182 Hs01561006_m1). Polymerase chain reaction amplifications were performed in a total volume of 20 μL containing 20× TaqMan Expression Assay primers, 2× TaqMan Universal Master Mix (Applied Biosystems, TaqMan® Gene Expression Systems), and cDNA template. Each polymerase chain reaction amplification was performed in triplicate wells in a StepOne Real-Time PCR System (Applied Biosystems) by using the following conditions: 500C 2 minutes, 95° C. 10 minutes, 95° C. 15 seconds (denature) and 60° C. 1 minute (anneal/extend) for 40 cycles. Fold change was calculated as the following: (Ct-Ct high)=n target, 2ntarget/2nHPRT=fold change where Ct=threshold cycle. The results were expressed as average fold change in or differential gene expression relative to control, with HPRT used as an internal control according to Livak and Schmittgen.

SSTR5 = test: Differential expression of SSTR5 (qRT-PCR) in iPSC generated pituitary organoids; type: cell-based, human; conditions: for effect on mifepristone-induced SSTR5 expression / effect on relacorilant-induced SSTR5 expression: iPSC organoids; for effect on mifepristone-induced SSTR5 expression: pretreatment 2 h before mifepristone (500 nM); for effect on relacorilant-induced SSTR5 expression: pretreatment 2 h before relacorilant (500 nM); for differential expression of SSTR5: iPSCctrl organoids, compound alone, 48 h, FIG. 5C, D
Procedure: as §1, §2

Hedgehog pathway = conditions: by blocking activation of SMO or GLI1/GLI2; cited from earlier work
FKBP5 = FKBP5 expression (GR target gene, qRT-PCR) in PitNET organoids; type: cell-based, human; conditions: PitNET organoids (iPSCctrl, iPSCUSP48MV, iPSCUSP8), 48 h, FIG. 16A-C
Procedure: as §1
as §2, with “10 minutes, 95° C. 15 seconds (denature) and 60° C. 1 minute (anneal/extend) for 40 cycles.” left out

SSTR2 [2] = conditions: cited from earlier work
iPSC^ctrl organoids [3] = test: EdU uptake (proliferation) in iPSCctrl organoids; type: cell-based, human; conditions: 100 nM pretreatment 2 h before mifepristone
Procedure: (§3) iPSCs were stained for pituitary specific hormones including luteinizing hormone (LH), follicle-stimulating hormone (FSH), growth hormone (GH), prolactin (PRL), ACTH, cytokeratin 8/18 (CAM5.2), pituitary transcription factor PIT-1 and neuroendocrine marker Synaptophysin (Table 5). Cultures were immunostained for proliferation marker EdU (Click-IT EdU Alexa Fluor 555 Imaging Kit, Thermo Fisher Scientific C10338). Antibody dilutions were determined based on manufacturer guidelines and antibody titration (Table 5). Staining was conducted according to previously published protocols. Briefly, organoids and iPSCs grown in 8-well glass bottom chamber slides were fixed using 3.7% formaldehyde, washed with DPBS, permeabilized with 0.5% Triton X-100 (SIGMA X-100, PBS-T, 20 min at room temperature), washed with 0.01% PBS-T, and blocked with 2% donkey serum (Jackson Immuno Research 017-000-121) for 1 hour at room temperature. After blocking, primary antibodies were added and incubated overnight at 4° C. Slides were washed with 0.01% PBS-T and incubated with secondary antibodies (Table 5) with Hoechst (Thermo Fisher Scientific H1399) for 1 hour at room temperature. Organoids were washed and stored in PBS at 4° C. until microscopic analysis. High content confocal microscopy was performed using the Nikon Ti2-E Inverted Microscope (with a Crest X-Light V2 L-FOV Spinning Disk Confocal) at the University of Arizona Cancer Center, or a ZEISS LSM880 34 channel Laser Scanning Confocal Microscope at University of Arizona Marley Imaging Core. Fluorescence intensity was quantified as the percentage of marker-positive cells versus total cells, using Nikon Elements Software (Version 5.21.05). Proliferation for each iPSC line was quantified as the percentage of EdU-positive cells versus total cells.
as §1, with “PitNET tissue derived organoids hPITO36, hPITO37, hPITO38, hPITO39, and hPITO40 were treated with the following experimental conditions: Vehicle (1), pasireotide (2), relacorilant (3), relacorilant & pasireotide (4), mifepristone (5), mifepristone & pasireotide (6).” left out, “All organoid cultures were treated for 48 hours prior to analysis.” left out

iPSC^USP48MV organoids [4] = test: EdU uptake (proliferation) in iPSCUSP48MV organoids; type: cell-based, human; conditions: 100 nM pretreatment 2 h before mifepristone
Procedure: as §3
as §1, with “PitNET tissue derived organoids hPITO36, hPITO37, hPITO38, hPITO39, and hPITO40 were treated with the following experimental conditions: Vehicle (1), pasireotide (2), relacorilant (3), relacorilant & pasireotide (4), mifepristone (5), mifepristone & pasireotide (6).” left out, “All organoid cultures were treated for 48 hours prior to analysis.” left out

iPSC^ctrl organoids [5] = test: ACTH secretion ELISA, iPSCctrl organoids; type: cell-based, human; conditions: 100 nM pretreatment 2 h before mifepristone, FIG. 6G
Procedure: as §1
(§4) Organoid conditioned media was collected and ACTH secretion using an ELISA according to the manufacturer's protocol (Novus Biologicals Human ACTH ELISA Kit NBP2-66401). The optical density was measured at a wavelength of 450 nm, and ACTH concentration (pg/mL) was interpolated using a standard curve with a 4-parameter logistic regression analysis using GraphPad Prism (v9.3.1).

iPSC^USP48MV organoids [6] = test: ACTH secretion ELISA, iPSCUSP48 organoids; type: cell-based, human; conditions: iPSCUSP48, 100 nM pretreatment 2 h before mifepristone, FIG. 7G
Procedure: as §1, §4

Row | SMILES | effect on mifepristone-induced SSTR2 expression (SSTR2 [1]) | effect on relacorilant-induced SSTR2 expression (SSTR2 [1]) | differential expression of SSTR2 (SSTR2 [1]) | effect on mifepristone-induced SSTR5 expression (SSTR5) | effect on relacorilant-induced SSTR5 expression (SSTR5) | differential expression of SSTR5 (SSTR5) | cell proliferation (Hedgehog pathway) | cell viability (Hedgehog pathway) | binding to / activation of SSTR2 (SSTR2 [2]) | further results
1 | CN(C)c1ccccc1CN1CCCN(Cc2ccccc2N(C)C)C1c1ccncc1 [GANT61] | reduced the induction of SSTR2 expression; also recorded: blocks SSTR2 and SSTR5 expression; also recorded: inhibited | blocks SSTR2 and SSTR5 expression; also recorded: inhibited | no effect | blocks SSTR2 and SSTR5 expression; also recorded: reduced; also recorded: inhibited | reduced the induction of SSTR5 expression; also recorded: blocks SSTR2 and SSTR5 expression; also recorded: inhibited | no effect | reduce cell proliferation and cell viability | reduce cell proliferation and cell viability |  | 
2 | C[C@@H]1C[C@H]2[C@@H]3CCC4=CC(=O)C=C[C@]4(C)[C@@]3(F)[C@@H](O)C[C@]2(C)[C@@]1(O)C(=O)CO [dexamethasone] |  |  | significantly decreased expression |  |  | significantly decreased expression |  |  |  | differential expression of FKBP5 (FKBP5): significant induction in gene expression
3 | CC(=O)N1CCN(c2ccc(OCC3COC(Cn4ccnc4)(c4ccc(Cl)cc4Cl)O3)cc2)CC1 (stereo not shown) [ketoconazole] | no effect; also recorded: failed to block the induction | failed to block the induction | no effect | no effect; also recorded: failed to block the induction | no effect; also recorded: failed to block the induction | no effect | reduce cell proliferation and cell viability | reduce cell proliferation and cell viability |  | effect on mifepristone-induced SSTR2 expression (SSTR2 [1]; listed as ketoconozaole): no effect; effect on relacorilant-induced SSTR2 expression (SSTR2 [1]; listed as ketoconozaole): no effect; effect on mifepristone-induced SSTR5 expression (SSTR5; listed as ketoconozaole): no effect; effect on relacorilant-induced SSTR5 expression (SSTR5; listed as ketoconozaole): no effect
4 | CC(C)[C@@H]1NC(=O)[C@H](CCCCN)NC(=O)[C@@H](Cc2c[nH]c3ccccc23)NC(=O)[C@H](Cc2ccc(O)cc2)NC(=O)[C@@H](NC(=O)[C@H](N)Cc2ccc3ccccc3c2)CSSC[C@@H](C(=O)N[C@H](C(N)=O)[C@@H](C)O)NC1=O [lanreotide] |  |  |  |  |  |  |  |  | preferentially binds or activates somatostatin receptor type 2 (SSTR2) | 
5 | C[C@@H](O)[C@@H]1NC(=O)[C@H](CCCCN)NC(=O)[C@@H](Cc2c[nH]c3ccccc23)NC(=O)[C@H](Cc2ccccc2)NC(=O)[C@@H](NC(=O)[C@H](N)Cc2ccccc2)CSSC[C@@H](C(=O)N[C@H](CO)[C@@H](C)O)NC1=O [octreotide] |  |  |  |  |  |  |  |  | preferentially binds or activates somatostatin receptor type 2 (SSTR2) | effect on proliferative response to mifepristone (EdU uptake) (iPSC^ctrl organoids [3]): inhibited; effect on proliferative response to mifepristone (EdU uptake) (iPSC^USP48MV organoids [4]): inhibited; effect on ACTH secretion in response to mifepristone (iPSC^ctrl organoids [5]): inhibition by octreotide was greater that pasireotide; effect on ACTH secretion in response to mifepristone (iPSC^ctrl organoids [5]; listed as Oct): significantly reduced ACTH secretion; effect on ACTH secretion in response to mifepristone (iPSC^USP48MV organoids [6]): inhibition by octreotide was greater that pasireotide; effect on ACTH secretion in response to mifepristone (iPSC^USP48MV organoids [6]; listed as Oct): significantly reduced ACTH secretion

— US20260325504A1, “Genetically Engineered Human Pituitary Corticotroph Tumor Organoids Exhibit Divergent Responses to Selective Glucocorticoid Receptor Modulators” (Corcept Therapeutics Incorporated, priority 2022, published 2026)
